The source of these data is patent publication US6465477B1, “Stable pharmaceutical composition” (Kowa Company, Ltd., priority 1997, dated 2002).

This series is described as follows: Decomposition products of NK-104 and fluvastatin in aqueous solution of pH 3, analyzed by HPLC. Type of series: physicochemical. The following applies: aqueous solution pH 3, 40° C. The method, then: Decomposition products of NK-104 were analyzed by HPLC after incubation for two days at 40° C. in aqueous solution of pH 3. […] The decomposition products of fluvastatin were also analyzed for comparison.
The conditions under which NK-104 and Fluvastatine decomposition products were analyzed are as follows:
HPLC system: Type LC-10 (Shimadz, Japan)
Column: DEVELOSIL ODS-HG-5 (NOMURA CHEM., Japan)
Mobil Phase: MeOH/0.02 mol/L phosphate buffer (pH 3)=7/3
Sample: NK-104 or fluvastatin/pH 3/40° C., 2 days
Detector: SPD-MLOAVP, UV 245 mm

As for `O=C(O)C[C@H](O)C[C@H](O)/C=C/c1c(C2CC2)nc2ccccc2c1-c1ccc(F)cc1` [NK-104, (E)-3,5-dihydroxy-7-[4′-4 ″-fluorophehyl-2 ′-cyclopropyl-quinolin-3′-yl]-6-heptenoic acid], the “Quantity of decomposition products” value (2 days) was “a small quantity of one type of decomposition product”. Besides, for the setting “two days”, the “Decomposition products (types)” value is “a single product, a lactonized form of NK-104”.
